Results on 34 molecules are retold here after US6147100A, “Pyrrolidine derivatives having phospholipase A2 inhibitory activity” (Shionogi & Co., Ltd., priority 1997, dated 2000).

One assay deals with T1, cPLA2 (Homo sapiens, UniProt P47712).
T1 sequence (P47712 1-749): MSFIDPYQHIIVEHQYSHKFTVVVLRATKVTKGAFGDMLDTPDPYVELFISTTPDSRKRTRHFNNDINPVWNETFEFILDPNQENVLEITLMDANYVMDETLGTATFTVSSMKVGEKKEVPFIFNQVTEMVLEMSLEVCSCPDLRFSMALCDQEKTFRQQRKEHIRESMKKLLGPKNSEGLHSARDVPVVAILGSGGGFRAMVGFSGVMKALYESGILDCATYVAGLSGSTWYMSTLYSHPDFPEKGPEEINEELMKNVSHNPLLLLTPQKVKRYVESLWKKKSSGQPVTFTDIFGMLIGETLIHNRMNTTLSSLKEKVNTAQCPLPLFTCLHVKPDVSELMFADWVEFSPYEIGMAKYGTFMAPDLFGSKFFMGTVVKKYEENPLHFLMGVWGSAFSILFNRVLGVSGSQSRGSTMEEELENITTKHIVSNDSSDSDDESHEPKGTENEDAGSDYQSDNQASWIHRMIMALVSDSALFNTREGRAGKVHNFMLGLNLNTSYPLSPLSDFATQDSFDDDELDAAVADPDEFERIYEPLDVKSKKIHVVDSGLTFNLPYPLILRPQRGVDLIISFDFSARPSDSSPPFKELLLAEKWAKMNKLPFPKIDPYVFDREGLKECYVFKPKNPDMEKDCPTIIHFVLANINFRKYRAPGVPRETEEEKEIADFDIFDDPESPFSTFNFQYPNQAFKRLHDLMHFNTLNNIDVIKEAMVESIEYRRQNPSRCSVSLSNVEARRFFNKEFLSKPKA
The experiment in a line: cPLA2 Inhibitory Activity. Conditions: 1-palmitoyl-2-[14C]-arachidonoyl-sn-glycero-3-phosphocholine 2.5 μM, sn-1,2-dioleoylglycerol 1.25 μM; pH 7.5, 15 min at 37° C. It counts as biochemical. The essentials:
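Radiometric assay in 50 mM HEPES pH 7.5 with 1 mM CaCl2, 150 mM NaCl, 0.1 mg/ml BSA and 1.7 mM DTT; compound and substrate added, reaction started with enzyme, 15 min at 37° C. Released fatty acids extracted (Dole method), counted by liquid scintillation versus no-compound control.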

In assay [1] the test system is production of prostaglandin E2 by human fibroblasts. The experiment in a line: Inhibition of Production of Prostaglandin E2 in Human Fibroblasts (IL-1 stimulation). It counts as cell-based. As to conditions: Fibroblast; human fibroblasts under stimulation with IL-1. The method in brief: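 Human fibroblasts stimulated with IL-1, with prostaglandin E2 production measured in the presence of compound as a cellular read-out of cPLA2 inhibition.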

Structures are written as SMILES.

For the molecule `O=C1NC(=O)/C(=C/c2ccc(C(=O)NC[C@@H]3C[C@@H](Oc4ccccc4-c4cccc(C(F)(F)F)c4)CN3C(=O)c3ccccc3C(=O)c3ccc(F)cc3)cc2)S1` [Compound A-109], the 50% inhibitory concentration (IC50) (commonly the concentration that gives 50% inhibition) amounted to 59 nM against cPLA2 and 1200 nM in assay [1].

Take `O=C1NC(=O)/C(=C/c2ccc(C(=O)NC[C@@H]3C[C@@H](Oc4ccccc4-c4cccc([N+](=O)[O-])c4)CN3C(=O)c3ccccc3C(=O)c3ccc(F)cc3)cc2)S1` [Compound A-111]: the half-inhibitory concentration (IC50) at cPLA2 came to 66 nM; in assay [1], 470 nM.

As for `O=C1NC(=O)/C(=C/c2ccc(C(=O)NC[C@@H]3C[C@@H](Oc4ccccc4-c4cccc(-c5ccccc5)c4)CN3C(=O)c3ccccc3C(=O)c3ccc(F)cc3)cc2)S1` [Compound A-112], the figures for the IC50 (against cPLA2; in assay [1]) were 65 nM and 1700 nM, respectively.

Take `CC(C)c1ccccc1-c1ccccc1O[C@@H]1C[C@@H](CNC(=O)c2ccc(/C=C3\SC(=O)NC3=O)cc2)N(C(=O)c2ccccc2C(=O)c2ccc(F)cc2)C1` [Compound A-115]: the IC50 on cPLA2 worked out at 10 nM; in assay [1], 4600 nM.

With `COc1cccc(-c2ccccc2)c1O[C@@H]1C[C@@H](CNC(=O)c2ccc(/C=C3\SC(=O)NC3=O)cc2)N(C(=O)c2ccccc2C(=O)c2ccc(F)cc2)C1` [Compound A-117], the IC50 on cPLA2 stood at 15 nM; in assay [1], 200 nM.

For the molecule `COc1cccc(-c2cccc3ccccc23)c1O[C@@H]1C[C@@H](CNC(=O)c2ccc(/C=C3\SC(=O)NC3=O)cc2)N(C(=O)c2ccccc2C(=O)c2ccc(F)cc2)C1` [Compound A-118], the half-inhibitory concentration (IC50) against cPLA2 came to 8 nM; in assay [1], 2200 nM.

For `O=C1NC(=O)/C(=C/c2ccc(C(=O)NC[C@@H]3C[C@@H](Oc4ccccc4Oc4ccccc4)CN3C(=O)c3ccccc3C(=O)c3ccc(F)cc3)cc2)S1` [Compound A-119], the IC50 was found to be 30 nM on cPLA2 and 2800 nM in assay [1].

With `COc1cccc(-c2ccccc2C(C)C)c1O[C@@H]1C[C@@H](CNC(=O)c2ccc(/C=C3\SC(=O)NC3=O)cc2)N(C(=O)c2ccccc2C(=O)c2ccc(F)cc2)C1` [Compound A-120], the IC50 on cPLA2 was determined as 29 nM; in assay [1], 740 nM.

On to `COc1cccc(-c2ccccc2OC(C)C)c1O[C@@H]1C[C@@H](CNC(=O)c2ccc(/C=C3\SC(=O)NC3=O)cc2)N(C(=O)c2ccccc2C(=O)c2ccc(F)cc2)C1` [Compound A-122], for which the figures for the IC50 (at cPLA2; in assay [1]) were 35 nM and 1400 nM, respectively.

For the molecule `O=C1NC(=O)/C(=C/c2ccc(NC(=O)[C@@H]3C[C@@H](OCc4ccccc4-c4ccccc4)CN3C(=O)c3ccccc3C(=O)c3ccc(F)cc3)cc2)S1` [Compound B-1], the IC50 was 210 nM against cPLA2 and 12000 nM in assay [1].

Take `O=C1NC(=S)S/C1=C\c1ccc(NC(=O)[C@@H]2C[C@@H](OCc3ccccc3-c3ccccc3)CN2C(=O)c2ccccc2C(=O)c2ccc(F)cc2)cc1` [Compound B-2]: the IC50 at cPLA2 is 84 nM; in assay [1], 4000 nM.

In the case of `O=C1NC(=O)/C(=C/c2ccc(NC(=O)[C@@H]3C[C@@H](OCc4ccccc4-c4ccccc4)CN3C(=O)c3ccccc3C(=O)c3ccc(Cl)cc3)cc2)S1` [Compound B-3], the IC50 at cPLA2 amounted to 420 nM; in assay [1] it was 3900 nM.

On to `O=C1NC(=S)S/C1=C\c1ccc(NC(=O)[C@@H]2C[C@@H](OCc3ccccc3-c3ccccc3)CN2C(=O)c2ccccc2C(=O)c2ccc(Cl)cc2)cc1` [Compound B-4], for which the IC50 on cPLA2 amounted to 130 nM; in assay [1], 5600 nM.

In the case of `Cc1ccc(C(=O)c2ccccc2C(=O)N2C[C@H](OCc3ccccc3-c3ccccc3)C[C@H]2C(=O)Nc2ccc(/C=C3\SC(=O)NC3=O)cc2)cc1` [Compound B-5], the IC50 worked out at 440 nM at cPLA2 and 7400 nM in assay [1].

Consider `Cc1ccc(C(=O)c2ccccc2C(=O)N2C[C@H](OCc3ccccc3-c3ccccc3)C[C@H]2C(=O)Nc2ccc(/C=C3\SC(=S)NC3=O)cc2)cc1` [Compound B-6], for which the IC50 on cPLA2 worked out at 140 nM; in assay [1], 7100 nM.

Regarding `O=C1NC(=S)S/C1=C\c1ccc(NC(=O)[C@@H]2C[C@@H](OCc3ccccc3-c3ccccc3)CN2C(=O)c2ccccc2C(=O)c2ccc(F)cc2)s1` [Compound B-7], the IC50 against cPLA2 was 1000 nM; in assay [1], 8100 nM.

On to `O=C1NC(=O)/C(=C/c2ccc(NC(=O)[C@@H]3C[C@@H](OCc4ccccc4-c4ccccc4)CN3C(=O)c3ccccc3C(=O)c3ccc(F)cc3)s2)S1` [Compound B-8], for which the IC50 on cPLA2 was found to be 1000 nM; in assay [1], 2700 nM.

Take `O=C1NC(=O)/C(=C/c2ccc(COC[C@@H]3C[C@@H](OCc4ccccc4-c4ccccc4)CN3C(=O)c3ccccc3C(=O)c3ccc(F)cc3)cc2)S1` [Compound C-1]: the IC50 on cPLA2 was 350 nM; in assay [1], 2300 nM.

Regarding `O=C1NC(=S)S/C1=C\c1ccc(COC[C@@H]2C[C@@H](OCc3ccccc3-c3ccccc3)CN2C(=O)c2ccccc2C(=O)c2ccc(F)cc2)cc1` [Compound C-2], the IC50 turned out to be 1100 nM at cPLA2 and 2200 nM in assay [1].

Regarding `O=C1NC(=S)S/C1=C\c1ccc(CC[C@@H]2C[C@@H](OCc3ccccc3-c3ccccc3)CN2C(=O)c2ccccc2C(=O)c2ccc(F)cc2)cc1` [Compound E-1], the figures for the IC50 (against cPLA2; in assay [1]) were 1100 nM and 2200 nM, respectively.

On to `O=C1NC(=O)/C(=C/c2ccc(CC[C@@H]3C[C@@H](OCc4ccccc4-c4ccccc4)CN3C(=O)c3ccccc3C(=O)c3ccc(F)cc3)cc2)S1` [Compound E-2], for which the 50% inhibitory concentration (IC50) was 280 nM against cPLA2 and 1100 nM in assay [1].

As for `O=C1NC(=S)S/C1=C\c1ccc(C=C[C@@H]2C[C@@H](OCc3ccccc3-c3ccccc3)CN2C(=O)c2ccccc2C(=O)c2ccc(F)cc2)cc1` [Compound E-3], the values for the IC50 (on cPLA2; in assay [1]) were 730 nM and 6000 nM, respectively.

`O=C1NC(=O)/C(=C/c2ccc(C=C[C@@H]3C[C@@H](OCc4ccccc4-c4ccccc4)CN3C(=O)c3ccccc3C(=O)c3ccc(F)cc3)cc2)S1` [Compound E-4]: the values for the IC50 (against cPLA2; in assay [1]) were 1100 nM and 1200 nM, respectively.

Turning to `O=C1NC(=S)S/C1=C\c1ccc(/C=C\[C@@H]2C[C@@H](OCc3ccccc3-c3ccccc3)CN2C(=O)c2ccccc2C(=O)c2ccc(F)cc2)s1` [Compound E-5], the IC50 against cPLA2 came to 750 nM; in assay [1], 3500 nM.

On to `O=C1NC(=O)/C(=C/c2ccc(CCC[C@@H]3C[C@@H](OCc4ccccc4-c4ccccc4)CN3C(=O)c3ccccc3C(=O)c3ccc(F)cc3)cc2)S1` [Compound E-9], for which the IC50 amounted to 1000 nM against cPLA2 and 6500 nM in assay [1].

As to `O=C1NC(=O)/C(=C/c2ccc(/C=C\C[C@@H]3C[C@@H](OCc4ccccc4-c4ccccc4)CN3C(=O)c3ccccc3C(=O)c3ccc(F)cc3)cc2)S1` [Compound E-12], the figures for the IC50 (against cPLA2; in assay [1]) were 350 nM and 5700 nM, respectively.

With `O=C1NC(=O)/C(=C/c2ccc(/C=C/C[C@@H]3C[C@@H](OCc4ccccc4-c4ccccc4)CN3C(=O)c3ccccc3C(=O)c3ccc(F)cc3)cc2)S1` [Compound E-14], the IC50 against cPLA2 was found to be 98 nM; in assay [1], 5600 nM.

For `O=C(C[C@@H]1C[C@@H](OCc2ccccc2-c2ccccc2)CN1C(=O)c1ccccc1C(=O)c1ccc(F)cc1)Nc1ccc(/C=C2\SC(=S)NC2=O)cc1` [Compound F-3], the IC50 on cPLA2 came out at 420 nM; in assay [1], 3000 nM.

For `CN(C[C@@H]1C[C@@H](OCc2ccccc2-c2ccccc2)CN1C(=O)c1ccccc1C(=O)c1ccc(F)cc1)C(=O)c1ccc(/C=C2\SC(=O)NC2=O)cc1` [Compound G-1], the concentration for half-maximal inhibition (IC50) was 780 nM at cPLA2 and 980 nM in assay [1].

Turning to `O=C1NC(=O)/C(=C/c2ccc(C(=O)NC[C@@H]3C[C@H](SCc4ccccc4-c4ccccc4)CN3C(=O)c3ccccc3C(=O)c3ccc(F)cc3)cc2)S1` [Compound I-1], the IC50 amounted to 100 nM against cPLA2 and 260 nM in assay [1].

For the molecule `O=C1NC(=O)/C(=C/c2ccc(C(=O)NC[C@@H]3C[C@H](SCc4ccccc4)CN3C(=O)c3ccccc3C(=O)c3ccccc3)cc2)S1` [Compound I-2], the IC50 was determined as 1000 nM at cPLA2 and 660 nM in assay [1].

As to `O=C1NC(=O)/C(=C/c2ccc(S(=O)(=O)NC[C@@H]3C[C@@H](SCc4ccccc4-c4ccccc4)CN3C(=O)c3ccccc3C(=O)c3ccc(F)cc3)cc2)S1` [Compound I-3], the figures for the IC50 (against cPLA2; in assay [1]) were 55 nM and 980 nM, respectively.

On to `O=C1NC(=S)S/C1=C\c1ccc(S(=O)(=O)NC[C@@H]2C[C@@H](SCc3ccccc3-c3ccccc3)CN2C(=O)c2ccccc2C(=O)c2ccc(F)cc2)cc1` [Compound I-4], for which the IC50 against cPLA2 turned out to be 480 nM; in assay [1], 1300 nM.

For the molecule `O=C1NC(=O)/C(=C/c2ccc(C(=O)NC[C@@H]3C[C@@H](SCc4ccccc4-c4ccccc4)CN3C(=O)c3ccccc3C(=O)c3ccc(F)cc3)cc2)S1` [Compound I-5], the IC50 is 34 nM against cPLA2 and 490 nM in assay [1].
